The values that follow come from patent publication US4868191A, “Alkaloid compounds, and pharmaceutical compositions containing them” (Harbor Branch Oceanographic Institution, Inc., priority 1988, dated 1989).

For data set [1], the system named is HCT-8 human colon tumor cells. Kind of data set: Human Tumor Cell Line Assay, HCT-8. Format: cell-based. Particulars: 120 hours, read-out: HCT-8 activity score (cell density vs control). The method, then:
(§1) The following assay methods are utilized to evaluate the antitumor activity of the alkaloid compounds of the invention.
(§2) Human Tumor Cell Line Assay
(§3) Maintenance of Cell Lines
(§4) HCT-8 human colon tumor cells are grown in RPMI 1640 medium. A-549 human lung carcinoma cells are grown in Dublecco MEM medium. T-47D human breast cancer cells are cultured in Eagles MEM medium. All media (Biologos, Inc.) are supplemented with 10% fetal bovine serum and contain 50 ug/ml gentamicin. All humand tumor cell lines are incubated in humidified air containing 5% CO2 at 37° C. and subcultured once a week. The seeding levels are 200,000 T-47D cells, 60,000 HCT-8 cells and 300,000 A-549 cells per T-25 Flask. Vinblastine is used as a positive control.
(§5) 2. Incubate is a CO2 incubator for 48 hours.
(§6) 3. Add compound to each well and incubate for an additional 120 hours.
(§7) 4. Discard medium and stain with methylene blue (HCT-8) or crystal violet (A-549 and T-47D).
(§8) 5. Compare cell density of compound-treated with that of the control (no compound added) as follows: ND (not detectable), 90% 1+, 75-90% 2+, 50-74% 3+, 25-49% 4+, 25% of control growth.
(§9) The positive control is Vinblastine in aqueous solution at the following concentrations: […]

Data set [2] relates to A-549 human lung carcinoma cells. Nature of the data set: Human Tumor Cell Line Assay, A-549. It is filed as cell-based. Particulars: 120 hours, read-out: A-549 activity score (cell density vs control). The method, then: as §1, §2, §3, §4, §5, §6, §7, §8, §9
In data set [3] the test system is Mouse P388. Nature of the data set: Mouse P388 in vivo antitumor activity (T/C). The conditions noted are these: Mouse P388, at 5 mg/kg.
In data set [4] the test system is P388 mouse leukemia cells. Nature of the data set: P338 (P388) Mouse Leukemia Cell Assay, in vitro. It is filed as cell-based. Particulars: 48 hours. How it is done: as §1
P338 Mouse Leukemia Cell Assay
as §3
P338 mouse leukemis cells are grown in Dulbecco MEM medium with 10% horse serum, 4 mM glutamine, and 20 ug/ml gentamycin (Biologos, Inc.). Cells are incubated in humidified air containing 10% CO2 at 37° C. and subcultured 2 time per week.
1. Add compound to each well of a 24-well plate to tube and allow solvent to evaporate to dryness.
2. Add 2 ml (1.2×10^5) cells to each well or tube and mix.
3. Incubate in 10% CO2 at 37° C. for 48 hours.
4. Read plates with an inverted microscope, scoring activity from 1+ to 4+ as follows: ND (not detectable), 90% 1+, 75-90% 2+, 50-74% 3+, 25-49% 4+, 25% of control growth.
Alternatively, the activity may be designated as IC50 concentration which is the concentration of compound required to inhibit 50% of cell growth on the plate.
Cell counts are performed on each tube and results are reported as percent of control.

Data set [5] has as its system T-47D human breast cancer cells. Nature of the data set: Human Tumor Cell Line Assay, T-47D. It is filed as cell-based. The conditions noted are these: T47D, 120 hours, read-out: T-47D activity score (cell density vs control). The method, then:
as §1, §2, §3, §4, §5, §6, §7, §8, §9

Data set [6] in a line: Immunomodulatory activity, two-way mixed lymphocyte reaction assay (% LCV). Particulars: mouse, lymphocytes. It is filed as cell-based, murine. From the text: This example concerns immunomodulatory activity of compounds of the invention on murine derived, two-way mixed lymphocyte reaction assay.

Values after ≈ are worked out from the molar mass of the structure shown.

As a reminder, the IC50 is the concentration that gives 50% inhibition. High values mean weaker potency in that assay, low ones greater potency in that assay. By viability is commonly meant the share of living cells, or the viability signal relative to a control.

On to `CN(C)CCc1c2ncsc2c2c3c(c4ccccc4nc13)C=CN2C` [Dercitin 1, dercitin 1], for which the activity at 0.01 µg/mL was over 90% in data set [1] (0.01 ug/ml); over 90% in data set [2] (A549, 0.01 ug/ml); over 90% in data set [5] (0.01 ug/ml). Moreover, the activity at 0.1 µg/mL in data set [1] (0.1 ug/ml) was under 25%; in data set [2] (A549, 0.1 ug/ml) it was under 25%; in data set [5] (0.1 ug/ml) it was under 25%. The activity at 1 µg/mL in data set [1] (1 ug/ml) is under 25%; in data set [2] (A549, 1 ug/ml), under 25%; in data set [5] (1 ug/ml), under 25%. Moreover, the activity at 2 µg/mL in data set [1] (2 ug/ml) was under 25%; in data set [2] (A549, 2 ug/ml), under 25%; in data set [5] (2 ug/ml), under 25%. Further, in data set [3], the “in vivo T/C” value came out at 170%. For the same molecule, in data set [4], it took 0.05 µg/mL (≈ 0.139 µM) to reach half-maximal inhibition (IC50). For the same molecule, the viability in data set [6] (0.01 ug/well) was found to be 56%; in data set [6] (0.1 ug/well), 48%; in data set [6] (1.0 ug/well), 46%; in data set [6] (10.0 ug/well) it was 67%.

Consider `CN(C)CCc1c2c3c(c4scnc14)N(C)CCC3c1ccccc1N2` (stereo not shown) [Tetrahydrodercitin 1, tetrahydrodercitin 1], for which the viability in data set [6] (0.01 ug/well) worked out at 100%; in data set [6] (0.1 ug/well) it was 91%; in data set [6] (1.0 ug/well) it was 49%; in data set [6] (10.0 ug/well) it was 41%.
